Assay results from ChEMBL document CHEMBL1141014, “Design and synthesis of a bis(cycloisodityrosine) analogue of RA-VII, an antitumor bicyclic hexapeptide” (Bioorg Med Chem Lett, 2008).
In brackets after ≈: the same amount, converted by molar mass.

Test system: P388
Assay: Cytotoxicity against mouse P388 cells
Type: functional, cell-based

COc1ccc(C[C@H]2C(=O)N[C@@H](C)C(=O)N(C)[C@H]3Cc4ccc(cc4)Oc4cc(ccc4OC)C[C@@H](C(=O)N[C@H](C)C(=O)N[C@@H](C)C(=O)N2C)N(C)C3=O)cc1
IC50: 0.0015 µg/mL (≈ 0.00195 µM)

COc1ccc2cc1Oc1ccc(cc1)C[C@@H]1NC(=O)[C@@H](C)NC(=O)[C@@H]3Cc4ccc(OC)c(c4)Oc4ccc(cc4)C[C@@H](C(=O)N3C)N(C)C(=O)[C@H](C)NC(=O)[C@H](C2)NC1=O
IC50: 7.5 µg/mL (≈ 8.86 µM)
